What was measured:
[1] = remaining non-/partial responder patients
[2] = Cohort of patients starting azathioprine therapy: clinical response, side-effects and association with XDH, MOCOS and AOX SNP genotype; details: cohort of 168 patients starting azathioprine therapy

Which “difference in TGN levels between wild-type and heterozygous for the AOX SNP” value [1] does the source give for `Cn1cnc([N+](=O)[O-])c1Sc1ncnc2nc[nH]c12` [azathioprine, 6-(1-methyl-4-nitro-5-imidazolylthio) purine] here?
Its value is “no significant difference”.

And the partial responders [2]?
Its partial responders is 7 patients.

What about the “patients deemed to have no response to azathioprine” value [2] of the same compound?
The value was 35 patients.
